From PubChem BioAssay (NCI)
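Tested at 5 concentrations; 48 h exposure; 96-well plates; endpoints linearly interpolated, else capped at highest concentration. TGI: concentration producing complete growth inhibition.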

Experiments:
Test in all cases: DTP human tumour cell line panel, 48 h
MCF7 breast = system: MCF7 breast
EKVX NSCLC = system: EKVX NSCLC
SK-MEL-2 melanoma = system: SK-MEL-2 melanoma
SF-268 CNS = system: SF-268 CNS
OVCAR-8 ovarian = system: OVCAR-8 ovarian
HCT-15 colon = system: HCT-15 colon
SF-295 CNS = system: SF-295 CNS
U251 CNS = system: U251 CNS
HOP-92 NSCLC = system: HOP-92 NSCLC
RXF 393 renal = system: RXF 393 renal
SN12C renal = system: SN12C renal
MOLT-4 leukemia = system: MOLT-4 leukemia
SNB-75 CNS = system: SNB-75 CNS
UO-31 renal = system: UO-31 renal
T-47D breast = system: T-47D breast
NCI/ADR-RES ovarian = system: NCI/ADR-RES ovarian
M14 melanoma = system: M14 melanoma
NCI-H226 lung = system: NCI-H226 lung
LOX IMVI melanoma = system: LOX IMVI melanoma
KM12 colon = system: KM12 colon
TK-10 renal = system: TK-10 renal
CCRF-CEM leukemia = system: CCRF-CEM leukemia
UACC-62 melanoma = system: UACC-62 melanoma
SF-539 CNS = system: SF-539 CNS
SK-MEL-5 melanoma = system: SK-MEL-5 melanoma
HCT-116 colon = system: HCT-116 colon
PC-3 prostate = system: PC-3 prostate
HL-60(TB) leukemia = system: HL-60(TB) leukemia
MDA-N = system: MDA-N
SR leukemia = system: SR leukemia
OVCAR-5 ovarian = system: OVCAR-5 ovarian
786-0 renal = system: 786-0 renal
SK-OV-3 ovarian = system: SK-OV-3 ovarian
RPMI-8226 leukemia = system: RPMI-8226 leukemia
UACC-257 melanoma = system: UACC-257 melanoma
A549 NSCLC = system: A549 NSCLC
MDA-MB-435 = system: MDA-MB-435
OVCAR-4 ovarian = system: OVCAR-4 ovarian
SW-620 colon = system: SW-620 colon
COLO 205 colon = system: COLO 205 colon
OVCAR-3 ovarian = system: OVCAR-3 ovarian
NCI-H460 lung = system: NCI-H460 lung
MDA-MB-231 breast = system: MDA-MB-231 breast
DU-145 prostate = system: DU-145 prostate
CAKI-1 renal = system: CAKI-1 renal
SNB-19 CNS = system: SNB-19 CNS
BT-549 breast = system: BT-549 breast
NCI-H522 lung = system: NCI-H522 lung
HS 578T breast = system: HS 578T breast
NCI-H23 lung = system: NCI-H23 lung
A498 renal = system: A498 renal
ACHN renal = system: ACHN renal
IGROV1 ovarian = system: IGROV1 ovarian
HT29 colon = system: HT29 colon
K-562 leukemia = system: K-562 leukemia
HOP-62 NSCLC = system: HOP-62 NSCLC
MALME-3M melanoma = system: MALME-3M melanoma
SK-MEL-28 melanoma = system: SK-MEL-28 melanoma

Measured: TGI

COc1ccc(N)c(C(=O)CCNC(C)=O)c1
not listed: K-562 leukemia | HOP-62 NSCLC | MALME-3M melanoma | SK-MEL-28 melanoma
> 100 µM: all other assays above

CN(C)CCNS(=O)(=O)N(C)C
not listed: UO-31 renal
> 100 µM: all other assays above
